Literature values in patent US10220158B2 (kaleo, Inc., priority 2014, dated 2019).

Conditions: jet injector vs conventional syringe

Cc1ncc2n1-c1ccc(Cl)cc1C(c1ccccc1F)=NC2 [midazolam]
peak midazolam plasma concentrations produced faster: over 30%
